Experimental data published in US6677362B1, “Solid pharmaceutical dispersions” (Warner-Lambert Company, priority 1991, dated 2004).

Key:
[1] = solubility of the drug in water / aqueous media; type: physicochemical
[2] = in vivo bioavailability studies involving animal models; settings: administered in its original crystalline form

## Cc1c(C)c2c(c(C)c1O)CCC(C)(COc1ccc(CC3SC(=O)NC3=O)cc1)O2 (single isomer, unassigned; (+)) [Romglizone, (+)-5-[4-(6-hydroxy-2,5,7,8-tetramethylchroman-2-ylmethoxy)-benzyl]-2,4-thiazolidinedione]
[1]; as the pH of the aqueous media increases
  change of solubility with pH: slightly increases
[1]; water
  solubility in water: practically insoluble
[2]
  bioavailability: poor bioavailability
